# Data as given in article PMC6792352, “Limited Chemical Structural Diversity Found to Modulate Thyroid Hormone Receptor in the Tox21 Chemical Library” (Environmental Health Perspectives, 2019).
# Counter-ions that a name gives are not always drawn. Positions of bridges follow the written chain, without caps; N, C: chain ends. Non-standard residues stand in square brackets, D forms with d. Residues, ends and D or L forms follow the SMILES beside them. hArg = N=C(N)NCCCC[C@H](N)C(=O)O; Mpa = O=C(O)CCS
# Test: in vitro
# Conditions: rat, gh3-tre-luc cells
SMILES,CC50 at 24 h (AC50 (uM) modified / 1000),also measured
CN1CCN(c2ccccc2/C=C2\SCCN(c3ccc(Cl)c(Cl)c3)C2=O)CC1 [Elzasonan],8.33 µM,–
CC[C@H](C)[C@H]1O[C@]2(C=C[C@@H]1C)C[C@@H]1C[C@@H](C/C=C(\C)[C@@H](O[C@H]3C[C@H](OC)[C@@H](O[C@H]4C[C@H](OC)[C@@H](NC)[C@H](C)O4)[C@H](C)O3)[C@@H](C)/C=C/C=C3\CO[C@@H]4[C@H](O)C(C)=C[C@@H](C(=O)O1)[C@]34O)O2 [Emamectin benzoate],–,"CC50 at 24 h (AC50 (uM) modified / 1000, Tox21_110001=Tox21_300787, viability, 1 nM T3 present, 24 h): 1.42 µM"
CCOCCn1c(N2CCCN(C)CC2)nc2ccccc21 [Emedastine difumarate],> 50 µM,–
CC[C@H]1CN2CCc3cc(OC)c(OC)cc3[C@@H]2C[C@@H]1C[C@H]1NCCc2cc(OC)c(OC)cc21 [Emetine dihydrochloride],0.065 µM,–
CCOC(=O)c1ccc(OCCN2C[C@H](O)[C@@H](O)[C@H](O)[C@H]2CO)cc1 [Emiglitate],> 50 µM,–
Nc1nc(=O)n([C@@H]2CS[C@H](CO)O2)cc1F [Emtricitabine],> 50 µM,–
C[C@H](N[C@@H](CCc1ccccc1)C(=O)O)C(=O)N1CCC[C@H]1C(=O)O [Enalapril acid],> 50 µM,–
CCOC(=O)[C@H](CCc1ccccc1)N[C@@H](C)C(=O)N1CCC[C@H]1C(=O)O [Enalapril],> 50 µM,–
COc1ccc(C(=O)Nc2ccccc2CCC2CCCCN2C)cc1 (stereo not drawn) [Encainide hydrochloride],> 50 µM,–
O=S1OC[C@@H]2[C@H](CO1)[C@]1(Cl)C(Cl)=C(Cl)[C@@]2(Cl)C1(Cl)Cl (stereo partly drawn) [Endosulfan I],–,"CC50 at 24 h (AC50 (uM) modified / 1000, Tox21_110001=Tox21_301581, viability, 1 nM T3 present, 24 h): 69.4 µM"
O=S1(=O)OCC2C(CO1)C1(Cl)C(Cl)=C(Cl)C2(Cl)C1(Cl)Cl (stereo not drawn) [Endosulfan sulfate],–,"CC50 at 24 h (AC50 (uM) modified / 1000, Tox21_110001=Tox21_300782, viability, 1 nM T3 present, 24 h): 56.1 µM"
O=S1OCC2C(CO1)C1(Cl)C(Cl)=C(Cl)C2(Cl)C1(Cl)Cl (stereo not drawn) [Endosulfan],–,"CC50 at 24 h (AC50 (uM) modified / 1000, Tox21_110001=Tox21_202365, viability, 1 nM T3 present, 24 h): 55.9 µM; CC50 at 24 h (AC50 (uM) modified / 1000, Tox21_110001=Tox21_300657, viability, 1 nM T3 present, 24 h): 37.5 µM"
O=C(O)[C@@H]1[C@H](C(=O)O)[C@H]2CC[C@@H]1O2 [Endothal],> 90 µM,–
ClC1=C(Cl)[C@]2(Cl)[C@@H]3[C@H]4C[C@H]([C@@H]5O[C@H]45)[C@@H]3[C@@]1(Cl)C2(Cl)Cl [Endrin],–,"CC50 at 24 h (AC50 (uM) modified / 1000, Tox21_110001=Tox21_111120, viability, 1 nM T3 present, 24 h): 34.4 µM; CC50 at 24 h (AC50 (uM) modified / 1000, Tox21_110001=Tox21_300613, viability, 1 nM T3 present, 24 h): > 90 µM"
FC(F)OC(F)(F)C(F)Cl (stereo not drawn) [Enflurane],–,"CC50 at 24 h (AC50 (uM) modified / 1000, Tox21_110001=Tox21_112426, viability, 1 nM T3 present, 24 h): > 50 µM; CC50 at 24 h (AC50 (uM) modified / 1000, Tox21_110001=Tox21_200166, viability, 1 nM T3 present, 24 h): > 90 µM"
CCCCCCCCCCCCCCCCCCCCCC(=O)Nc1ccn([C@@H]2O[C@H](CO)[C@@H](O)[C@@H]2O)c(=O)n1 [Enocitabine],> 50 µM,–
CCn1cc(C(=O)O)c(=O)c2cc(F)c(N3CCNCC3)nc21 [Enoxacin],> 20 µM,–
CSc1ccc(C(=O)c2[nH]c(=O)[nH]c2C)cc1 [Enoximone],> 50 µM,–
CCCn1c(=O)[nH]c(=O)c2[nH]cnc21 [Enprofylline],> 50 µM,–
CCN1CCN(c2cc3c(cc2F)c(=O)c(C(=O)O)cn3C2CC2)CC1 [Enrofloxacin],> 50 µM,–
O=S(=O)(O)c1ccc2[nH]c(-c3ccccc3)nc2c1 [Ensulizole],> 90 µM,–
CCN(CC)C(=O)/C(C#N)=C/c1cc(O)c(O)c([N+](=O)[O-])c1 [Entacapone],> 50 µM,–
C=C1[C@H](CO)[C@@H](O)C[C@@H]1n1cnc2c(=O)[nH]c(N)nc21 [Entecavir],> 50 µM,–
O=C1OC[C@@H](Cc2cccc(O)c2)[C@@H]1Cc1cccc(O)c1 [Enterolactone],> 30 µM,–
Cn1cc(C2=C(c3cn(C4CCN(Cc5ccccn5)CC4)c4ccccc34)C(=O)NC2=O)c2ccccc21 [Enzastaurin],> 50 µM,–
CC(/C=C1\SC(=S)N(CC(=O)O)C1=O)=C\c1ccccc1 [Epalrestat],42.6 µM,–
CCc1ccc(C(=O)C(C)CN2CCCCC2)cc1 (stereo not drawn) [Eperisone hydrochloride],> 50 µM,–
CN[C@@H](C)[C@H](O)c1ccccc1 [Ephedrine hydrochloride],> 50 µM,–

SMILES,CC50 at 24 h (AC50 (uM) modified / 1000),also measured
BrCC1CO1 (stereo not drawn) [Epibromohydrin],–,"CC50 at 24 h (AC50 (uM) modified / 1000, Tox21_110001=Tox21_202607, viability, 1 nM T3 present, 24 h): > 90 µM"
ClCC1CO1 (stereo not drawn) [Epichlorohydrin],> 90 µM,–
NC1=NCC2c3ccccc3Cc3ccccc3N12 (stereo not drawn) [Epinastine hydrochloride],> 50 µM,–
CNC[C@H](O)c1ccc(O)c(O)c1 [Epinephrine bitartrate],> 90 µM,–
COc1cc(C)nc(-n2nc(C)cc2OC)n1 [Epirizole],> 20 µM,–
C[C@]12CC[C@H]3[C@@H](CCC4=CC(=O)CC[C@@]43C)[C@@H]1CC[C@H]2O [Epitestosterone],–,"CC50 at 24 h (AC50 (uM) modified / 1000, Tox21_110001=Tox21_111058, viability, 1 nM T3 present, 24 h): > 50 µM"
C[C@]12C[C@H]3S[C@H]3C[C@@H]1CC[C@@H]1[C@@H]2CC[C@]2(C)[C@@H](O)CC[C@@H]12 [Epitiostanol],–,"CC50 at 24 h (AC50 (uM) modified / 1000, Tox21_110001=Tox21_110520, viability, 1 nM T3 present, 24 h): > 20 µM"
COC(=O)[C@@H]1CC2=CC(=O)CC[C@]2(C)[C@@]23O[C@@H]2C[C@@]2(C)[C@@H](CC[C@@]24CCC(=O)O4)[C@H]13 [Eplerenone],> 50 µM,–
CCCCC[C@H](O)/C=C/[C@@H]1[C@H]2C/C(=C/CCCC(=O)O)O[C@H]2C[C@H]1O [Epoprostenol sodium],> 50 µM,–
C/C(=C\c1csc(C)n1)[C@@H]1C[C@@H]2O[C@]2(C)CCC[C@H](C)[C@H](O)[C@@H](C)C(=O)C(C)(C)[C@@H](O)CC(=O)O1 [Epothilone B],0.00955 µM,–
CCOC(CN1CCN(CC(C)C(=O)c2ccccc2)CC1)c1ccccc1 (stereo not drawn) [Eprazinone dihydrochloride],> 50 µM,–
CC[C@H](C)[C@H]1O[C@]2(C=C[C@@H]1C)C[C@@H]1C[C@@H](C/C=C(\C)[C@@H](O[C@H]3C[C@H](OC)[C@@H](O[C@H]4C[C@H](OC)[C@H](NC(C)=O)[C@H](C)O4)[C@H](C)O3)[C@@H](C)/C=C/C=C3\CO[C@@H]4[C@H](O)C(C)=C[C@@H](C(=O)O1)[C@]34O)O2 [Eprinomectin B1a],7.24 µM,–
CC(C)(C)NC(=O)[C@H]1CC[C@H]2[C@@H]3CC=C4C=C(C(=O)O)CC[C@]4(C)[C@H]3CC[C@]12C [Epristeride],> 50 µM,–
O=C(NCCCN1CCOCC1)c1ccc(Cl)cc1 [Eprobemide],> 50 µM,–
CCCCc1ncc(/C=C(\Cc2cccs2)C(=O)O)n1Cc1ccc(C(=O)O)cc1 [Eprosartan mesylate],> 50 µM,–
N=C(N)NCCCC[C@@H]1NC(=O)CCSSC[C@@H](C(N)=O)NC(=O)[C@@H]2CCCN2C(=O)[C@H](Cc2c[nH]c3ccccc23)NC(=O)[C@H](CC(=O)O)NC(=O)CNC1=O [Eptifibatide] ([Mpa][hArg]GDWPC-NH2; disulfide 1-7),> 50 µM,–
O=C(O)CSCC(=O)NC1CCSC1=O (stereo not drawn) [Erdosteine],> 50 µM,–
C[C@@H](CO)NC(=O)[C@@H]1C=C2c3cccc4[nH]cc(c34)C[C@H]2N(C)C1 [Ergonovine],–,"CC50 at 24 h (AC50 (uM) modified / 1000, Tox21_110001=Tox21_112022, viability, 1 nM T3 present, 24 h): > 50 µM"
CN1C[C@H](C(=O)N[C@]2(C)O[C@@]3(O)[C@@H]4CCCN4C(=O)[C@H](Cc4ccccc4)N3C2=O)C=C2c3cccc4[nH]cc(c34)C[C@H]21 [Ergotamine D-tartrate],–,"CC50 at 24 h (AC50 (uM) modified / 1000, Tox21_110001=Tox21_111183, viability, 1 nM T3 present, 24 h): > 50 µM; CC50 at 24 h (AC50 (uM) modified / 1000, Tox21_110001=Tox21_201705, viability, 1 nM T3 present, 24 h): > 90 µM; CC50 at 24 h (AC50 (uM) modified / 1000, Tox21_110001=Tox21_303182, viability, 1 nM T3 present, 24 h): > 40 µM"
C#Cc1cccc(Nc2ncnc3cc(OCCOC)c(OCCOC)cc23)c1 [Erlotinib],> 50 µM,–
OC[C@@H](O)[C@@H](O)CO [Erythritol],> 90 µM,–
CCOC(=O)CCC(=O)O[C@H]1[C@H](O[C@@H]2[C@@H](C)[C@H](O[C@H]3C[C@@](C)(OC)[C@@H](O)[C@H](C)O3)[C@@H](C)C(=O)O[C@H](CC)[C@@](C)(O)[C@H](O)[C@@H](C)C(=O)[C@H](C)C[C@@]2(C)O)O[C@H](C)C[C@@H]1N(C)C [Erythromycin ethylsuccinate],> 50 µM,–
CCC(=O)O[C@H]1[C@H](O[C@@H]2[C@@H](C)[C@H](O[C@H]3C[C@@](C)(OC)[C@@H](O)[C@H](C)O3)[C@@H](C)C(=O)O[C@H](CC)[C@@](C)(O)[C@H](O)[C@@H](C)C(=O)[C@H](C)C[C@@]2(C)O)O[C@H](C)C[C@@H]1N(C)C [Erythromycin propionate],13.1 µM,–
CC[C@H]1OC(=O)[C@H](C)[C@@H](O[C@H]2C[C@@](C)(OC)[C@@H](O)[C@H](C)O2)[C@H](C)[C@@H](O[C@@H]2O[C@H](C)C[C@H](N(C)C)[C@H]2O)[C@](C)(O)C[C@@H](C)C(=O)[C@H](C)[C@@H](O)[C@]1(C)O [Erythromycin],> 70 µM,–
O=C(CN1CCNCC1)NC1CCCCC1 [Esaprazole],> 50 µM,–
CN(C)CCC[C@@]1(c2ccc(F)cc2)OCc2cc(C#N)ccc21 [Escitalopram oxalate],> 50 µM,–
O=c1ccc2cc(O[C@@H]3O[C@H](CO)[C@@H](O)[C@H](O)[C@H]3O)c(O)cc2o1 [Esculin],> 20 µM,–
